Results taken from US9708357B2, “4′-azido, 3′-fluoro substituted nucleoside derivatives as inhibitors of HCV RNA replication” (Riboscience LLC, priority 2011, dated 2017).

Key:
[1] = system: HCV genotype 1b subgenomic replicon (2209-23 cells); experiment: HCV Replicon assay (Renilla luciferase reporter); assay type: cell-based; conditions: Hepatitis C virus, Huh-7, 72 h; genotype 1b replicon, 2209-23 Huh7 cells, three days incubation, Renilla luciferase readout
[2] = in vitro; conditions: human

Structure (SMILES) | IC50 [1] | CC50 [2]
CC(C)OC(=O)[C@H](C)NP(=O)(OC[C@@]1(N=[N+]=[N-])O[C@@H](n2ccc(=O)[nH]c2=O)[C@H](O)[C@@H]1F)Oc1ccccc1 (stereo partly drawn) [Compound I-1, (S)-2-{[(2R,3S,4S,5R)-2-Azido-5-(2,4-dioxo-3,4-dihydro-2H-pyrimidin-1-yl)-3-fluoro-4-hydroxy-tetrahydro-furan-2-ylmethoxy]-phenoxy-phosphorylamino}-propionic acid isopropyl ester] | > 100 µM | > 100 µM
CCOC(=O)[C@H](C)NP(=O)(OC[C@@]1(N=[N+]=[N-])O[C@@H](n2ccc(=O)[nH]c2=O)[C@H](O)[C@@H]1F)Oc1ccccc1 (stereo partly drawn) [Compound I-2, (S)-2-{[(2R,3S,4S,5R)-2-Azido-5-(2,4-dioxo-3,4-dihydro-2H-pyrimidin-1-yl)-3-fluoro-4-hydroxy-tetrahydro-furan-2-ylmethoxy]-phenoxy-phosphorylamino}-propionic acid ethyl ester] | 39.8 µM | > 100 µM
CCOC(=O)[C@H](C)NP(=O)(OC[C@@]1(N=[N+]=[N-])O[C@@H](n2ccc(=O)[nH]c2=O)[C@H](O)[C@@H]1F)Oc1cccc2ccccc12 (stereo partly drawn) [Compound I-3, (S)-2-[[(2R,3S,4S,5R)-2-Azido-5-(2,4-dioxo-3,4-dihydro-2H-pyrimidin-1-yl)-3-fluoro-4-hydroxy-tetrahydro-furan-2-ylmethoxy]-(naphthalen-1-yloxy)-phosphorylamino]-propionic acid ethyl ester] | 79.1 µM | > 100 µM
CC(C)OC(=O)[C@H](C)NP(=O)(OC[C@@]1(N=[N+]=[N-])O[C@@H](n2ccc(N)nc2=O)[C@H](O)[C@@H]1F)Oc1cccc2ccccc12 (stereo partly drawn) [Compound I-4, (S)-2-[[(2R,3S,4S,5R)-5-(4-Amino-2-oxo-2H-pyrimidin-1-yl)-2-azido-3-fluoro-4-hydroxy-tetrahydro-furan-2-ylmethoxy]-(naphthalen-1-yloxy)-phosphorylamino]-propionic acid isopropyl ester] | > 100 µM | > 100 µM
C[C@H](NP(=O)(OC[C@@]1(N=[N+]=[N-])O[C@@H](n2ccc(N)nc2=O)[C@H](O)[C@@H]1F)Oc1cccc2ccccc12)C(=O)OCc1ccccc1 (stereo partly drawn) [Compound I-5, (S)-2-[[(2R,3S,4S,5R)-5-(4-Amino-2-oxo-2H-pyrimidin-1-yl)-2-azido-3-fluoro-4-hydroxy-tetrahydro-furan-2-ylmethoxy]-(naphthalen-1-yloxy)-phosphorylamino]-propionic acid benzyl ester] | 1.54 µM | 91.2 µM
CCOC(=O)[C@H](C)NP(=O)(OC[C@@]1(N=[N+]=[N-])O[C@@H](n2ccc(N)nc2=O)[C@H](O)[C@@H]1F)Oc1cccc2ccccc12 (stereo partly drawn) [Compound I-6, (S)-2-[[(2R,3S,4S,5R)-5-(4-Amino-2-oxo-2H-pyrimidin-1-yl)-2-azido-3-fluoro-4-hydroxy-tetrahydro-furan-2-ylmethoxy]-(naphthalen-1-yloxy)-phosphorylamino]-propionic acid ethyl ester] | 32 µM | > 100 µM
CC(C)OC(=O)[C@H](C)NP(=O)(OC[C@@]1(N=[N+]=[N-])O[C@@H](n2ccc(N)nc2=O)[C@H](O)[C@@H]1F)Oc1ccccc1 (stereo partly drawn) [Compound I-7, (S)-2-{[(2R,3S,4S,5R)-5-(4-Amino-2-oxo-2H-pyrimidin-1-yl)-2-azido-3-fluoro-4-hydroxy-tetrahydro-furan-2-ylmethoxy]-phenoxy-phosphorylamino}-propionic acid isopropyl ester] | 56 µM | > 100 µM
CC(C)OC(=O)[C@H](C)NP(=O)(O)OC[C@@]1(N=[N+]=[N-])O[C@@H](n2ccc(N)nc2=O)[C@H](O)[C@@H]1F [Compound I-8, (S)-2-{[(2R,3S,4S,5R)-5-(4-Amino-2-oxo-2H-pyrimidin-1-yl)-2-azido-3-fluoro-4-hydroxy-tetrahydro-furan-2-ylmethoxy]-hydroxy-phosphorylamino}-propionic acid isopropyl ester] | > 100 µM | > 100 µM
CCC(=O)O[C@H]1[C@H](n2ccc(N)nc2=O)O[C@@](COP(=O)(N[C@@H](C)C(=O)OC(C)C)Oc2cccc3ccccc23)(N=[N+]=[N-])[C@H]1F (stereo partly drawn) [Compound I-9, (S)-2-[[(2R,3S,4S,5R)-5-(4-Amino-2-oxo-2H-pyrimidin-1-yl)-2-azido-3-fluoro-4-propionyloxy-tetrahydro-furan-2-ylmethoxy]-(naphthalen-1-yloxy)-phosphorylamino]-propionic acid isopropyl ester] | 27 µM | 58 µM
